Test results from patent US20160039880A1 (priority 2012, published 2016).
Where two headings read alike, the source gives them in different places.

Tests used:
[1] = molecular target: Human recombinant cyclophilin A (Cyp A) (Homo sapiens, UniProt P62937);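 also: cis to trans isomerization of SUC-AAPF-pNA by 2 nM enzyme, read as absorbance at 330 nm over 300 s at 10 °C, catalytic rate corrected for uncatalyzed background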
[2] = Water Solubility Assay (measured in pH 7.8 buffer); type: physicochemical;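 also: precipitation onset detected as rise in absorbance at 650 nm across increasing concentrations, after shaking for 18 h, blank wells receiving DMSO only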
[3] = pH 7.8, read-out: Water Solubility Assay
[4] = 35 mM HEPES pH 7.8, 1% DMSO, 25 °C, 18 h, read-out: Water Solubility Assay, concentration at which the compound remains in solution

Human recombinant cyclophilin A (Cyp A), sequence (P62937 whole entry): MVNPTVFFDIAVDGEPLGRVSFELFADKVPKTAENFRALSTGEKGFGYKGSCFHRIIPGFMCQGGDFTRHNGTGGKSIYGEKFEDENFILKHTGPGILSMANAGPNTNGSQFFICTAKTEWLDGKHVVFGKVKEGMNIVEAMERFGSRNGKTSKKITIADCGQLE

Compound | Ki [1] | solubility at 18 h [2, 3] | solubility at 18 h [2, 4] | Water Solubility Assay, concentration at which the compound remains in solution ([2]; 35 mM HEPES pH 7.8, 1% DMSO, 25 °C, 18 h)
CC(C)CC1C(=O)NC(C(C)C)C(=O)N(C)C(CC(C)C)C(=O)NC(C)C(=O)NC(C)C(=O)N(C)C(CC(C)C)C(=O)N(C)C(CC(C)C)C(=O)N(C)C(C(C)C)C(=O)N(C)C(C(O)C(C)CCN2CCOCC2)C(=O)NC(C(C)C)C(=O)N(C)CC(=O)N1C [Compound AN, [(3R,4R,5S)-4-(hydroxy-3-methyl-5-(methylamino)-1-N-morpholino-hexanoic acid]^1 cyclosporin D] | 15 nM |  |  | 
CCC1NC(=O)C(C(O)C(C)CCN2CCCN(C)CC2)N(C)C(=O)C(C(C)C)N(C)C(=O)C(CC(C)C)N(C)C(=O)C(CC(C)C)N(C)C(=O)C(C)NC(=O)C(C)NC(=O)C(CC(C)C)N(C)C(=O)C(C(C)C)NC(=O)C(CC(C)C)N(C)C(=O)C(C)N(C)C1=O [Compound EG, [[(3R,4R,5S)-4-Hydroxy-3-methyl-5-(methylamino)-1-(4-methyl-[1,4]diazepan-1-yl)-hexanoic acid]^1[(R)-methyl-Sar]^3 cyclosporin A] | 8.2 nM | >100 µM |  | 
CCC1NC(=O)C(C(O)C(C)CCN2CC(OC)C2)N(C)C(=O)C(C(C)C)N(C)C(=O)C(CC(C)C)N(C)C(=O)C(CC(C)C)N(C)C(=O)C(C)NC(=O)C(C)NC(=O)C(CC(C)C)N(C)C(=O)C(C(C)C)NC(=O)C(CC(C)C)N(C)C(=O)C(C)N(C)C1=O [Compound EH, [[(3R,4R,5S)-4-Hydroxy-1-(3-methoxy-azetidin-1-yl)-3-methyl-5-(methylamino)-hexanoic acid]^1[(R)-methyl-Sar]^3 cyclosporin A] | 17 nM | >100 µM |  | 
CCC1NC(=O)C(C(O)C(C)CCCN2CCOCC2)N(C)C(=O)C(C(C)C)N(C)C(=O)C(CC(C)C)N(C)C(=O)C(CC(C)C)N(C)C(=O)C(C)NC(=O)C(C)NC(=O)C(CC(C)C)N(C)C(=O)C(C(C)C)NC(=O)C(CC(C)C)N(C)C(=O)CN(C)C1=O [Compound EI, [(4R,5R,6S)-5-Hydroxy-4-methyl-6-(methylamino)-1-(morpholin-4-yl)-heptanoic acid]^1 cyclosporin A] | 14 nM |  |  | 
CC[C@H]1NC(=O)[C@@H]([C@H](O)[C@H](C)CCN2CCOCC2)N(C)C(=O)[C@@H](C(C)C)N(C)C(=O)[C@@H](CC(C)C)N(C)C(=O)[C@@H](CC(C)C)N(C)C(=O)[C@H](C)NC(=O)[C@@H](C)NC(=O)[C@@H](CC(C)C)N(C)C(=O)[C@@H](C(C)C)NC(=O)[C@H](CC(C)C)N(C)C(=O)[C@@H](C)N(C)C1=O [Compound F, [(3R,4R,5S)-4-(hydroxy)-3-methyl-5-(methylamino)-1-(morpholin-4-yl)hexanoic acid]^1[(R)-Me-Sar]^3 cyclosporin A] | 4.5 nM |  |  | 
CC[C@H]1NC(=O)[C@@H]([C@H](O)[C@H](C)CCN2CCSCC2)N(C)C(=O)[C@@H](C(C)C)N(C)C(=O)[C@@H](CC(C)C)N(C)C(=O)[C@@H](CC(C)C)N(C)C(=O)[C@H](C)NC(=O)[C@@H](C)NC(=O)[C@@H](CC(C)C)N(C)C(=O)[C@@H](C(C)C)NC(=O)[C@H](CC(C)C)N(C)C(=O)[C@@H](C)N(C)C1=O [Compound J, [(3R,4R,5S)-4-Hydroxy-3-methyl-5-(methylamino)-1-(thiomorpholino)-hexanoic acid]^1[(R)-Me-Sar]^3 cyclosporin A] | 3.7 nM |  |  | 
CC[C@H]1NC(=O)[C@@H]([C@H](O)[C@H](C)CCN2CCN(C)CC2)N(C)C(=O)[C@@H](C(C)C)N(C)C(=O)[C@@H](CC(C)C)N(C)C(=O)[C@@H](CC(C)C)N(C)C(=O)[C@H](C)NC(=O)[C@@H](C)NC(=O)[C@@H](CC(C)C)N(C)C(=O)[C@@H](C(C)C)NC(=O)[C@H](CC(C)C)N(C)C(=O)[C@@H](C)N(C)C1=O [Compound L, [(3R,4R,5S)-4-hydroxy-3-methyl-5-(methylamino)-1-(4-methylpiperazino)-hexanoic acid]^1[(R)-Me-Sar]^3 cyclosporin A] | 7.3 nM |  |  | 
CC[C@H]1NC(=O)[C@@H]([C@H](O)[C@H](C)CCN2CCN(C)CC2)N(C)C(=O)[C@@H](C(C)C)N(C)C(=O)[C@@H](CC(C)C)N(C)C(=O)[C@@H](CC(C)C)N(C)C(=O)[C@H](C)NC(=O)[C@@H](C)NC(=O)[C@@H](CC(C)C)N(C)C(=O)[C@@H](C(C)C)NC(=O)[C@H](CC(C)C)N(C)C(=O)CN(C)C1=O [Compound LL] | 46 nM |  |  | 
CC[C@H]1NC(=O)[C@@H]([C@H](O)[C@H](C)CCN2CCNC(=O)C2)N(C)C(=O)[C@@H](C(C)C)N(C)C(=O)[C@@H](CC(C)C)N(C)C(=O)[C@@H](CC(C)C)N(C)C(=O)[C@H](C)NC(=O)[C@@H](C)NC(=O)[C@@H](CC(C)C)N(C)C(=O)[C@@H](C(C)C)NC(=O)[C@H](CC(C)C)N(C)C(=O)[C@@H](C)N(C)C1=O [Compound N, [(3R,4R,5S)-4-hydroxy-3-methyl-5-(methylamino)-1-(N-3-piperazinone)-hexanoic acid]^1[(R)-Me-Sar]^3 cyclosporin A] | 6.1 nM |  |  | 
CC[C@H]1NC(=O)[C@@H]([C@H](O)[C@H](C)CCN2CCNC(=O)C2)N(C)C(=O)[C@@H](C(C)C)N(C)C(=O)[C@@H](CC(C)C)N(C)C(=O)[C@@H](CC(C)C)N(C)C(=O)[C@H](C)NC(=O)[C@@H](C)NC(=O)[C@@H](CC(C)C)N(C)C(=O)[C@@H](C(C)C)NC(=O)[C@H](CC(C)C)N(C)C(=O)CN(C)C1=O [Compound NN] | 120 nM |  |  | 
CCC1NC(=O)C(C(O)C(C)CCCC(=O)NCCS(=O)(=O)N(C)C)N(C)C(=O)C(C(C)C)N(C)C(=O)C(CC(C)C)N(C)C(=O)C(CC(C)C)N(C)C(=O)C(C)NC(=O)C(C)NC(=O)C(CC(C)C)N(C)C(=O)C(C(C)C)NC(=O)C(CC(C)C)N(C)C(=O)C(C)N(C)C1=O [Compound W, [(5R,6R,7S)-6-hydroxy-5-methyl-7-(methylamino)-1-(2-{sulfonic acid dimethylamide}-ethylamino)-1-oxo-octanoic acid]^1[(R)-methyl-Sar]^3 cyclosporin A] | 1.9 nM |  | >100 µM | 
[(3R,4R,5S)-4-Hydroxy-3-methyl-5-(methylamino)-1-2-(N,N-diethylamino)ethoxy-hexanoic acid]^1[(S)-thio-isopropyl-Sar]^3 cyclosporin A [Compound AL] | 27 nM |  |  | 

Second part, the compound after the results:

Ki [1] | solubility at 18 h [2, 3] | solubility at 18 h [2, 4] | Water Solubility Assay, concentration at which the compound remains in solution ([2]; 35 mM HEPES pH 7.8, 1% DMSO, 25 °C, 18 h) | Compound
3.2 nM |  |  |  | CC[C@H]1NC(=O)[C@@H]([C@H](O)[C@H](C)CCN2CCS(=O)(=O)CC2)N(C)C(=O)[C@@H](C(C)C)N(C)C(=O)[C@@H](CC(C)C)N(C)C(=O)[C@@H](CC(C)C)N(C)C(=O)[C@H](C)NC(=O)[C@@H](C)NC(=O)[C@@H](CC(C)C)N(C)C(=O)[C@@H](C(C)C)NC(=O)[C@H](CC(C)C)N(C)C(=O)[C@@H](C)N(C)C1=O [Compound P, [(3R,4R,5S)-4-Hydroxy-3-methyl-5-(methylamino)-1-(1,1-dioxo-thiomorpholino)-hexanoic acid]^1[(R)-Me-Sar]^3 cyclosporin A]
5 nM |  | >100 µM |  | CC[C@H]1NC(=O)[C@@H]([C@H](O)[C@H](C)CCCC(=O)N2CCN(C)CC2)N(C)C(=O)[C@@H](C(C)C)N(C)C(=O)[C@@H](CC(C)C)N(C)C(=O)[C@@H](CC(C)C)N(C)C(=O)[C@H](C)NC(=O)[C@@H](C)NC(=O)[C@@H](CC(C)C)N(C)C(=O)[C@@H](C(C)C)NC(=O)[C@H](CC(C)C)N(C)C(=O)[C@@H](C)N(C)C1=O [Compound T, [(5R,6R,7S)-6-hydroxy-5-methyl-7-(methylamino)-1-(4-methylpiperazin-1-yl)-1-oxo-octanoic acid]^1[(R)-methyl-Sar]^3 cyclosporin A]
4.1 nM |  | >100 µM |  | CCC1NC(=O)C(C(O)C(C)CCCC(=O)NCCc2c[nH]cn2)N(C)C(=O)C(C(C)C)N(C)C(=O)C(CC(C)C)N(C)C(=O)C(CC(C)C)N(C)C(=O)C(C)NC(=O)C(C)NC(=O)C(CC(C)C)N(C)C(=O)C(C(C)C)NC(=O)C(CC(C)C)N(C)C(=O)C(C)N(C)C1=O [Compound Y, [(5R,6R,7S)-6-hydroxy-5-methyl-7-(methylamino)-1-(2-{1H-imidazol-4-yl}-ethylamino)-1-oxo-octanoic acid]^1[(R)-methyl-Sar]^3 cyclosporin A]
2 nM |  | >100 µM |  | CC[C@H]1NC(=O)[C@@H]([C@H](O)[C@H](C)CCCC(=O)N2CCS(=O)(=O)CC2)N(C)C(=O)[C@@H](C(C)C)N(C)C(=O)[C@@H](CC(C)C)N(C)C(=O)[C@@H](CC(C)C)N(C)C(=O)[C@H](C)NC(=O)[C@@H](C)NC(=O)[C@@H](CC(C)C)N(C)C(=O)[C@@H](C(C)C)NC(=O)[C@H](CC(C)C)N(C)C(=O)[C@@H](C)N(C)C1=O [Compound Z, [(5R,6R,7S)-6-hydroxy-5-methyl-7-(methylamino)-1-({1,1-dioxo}thiomorpholin-4-yl)-1-oxo-octanoic acid]^1[(R)-methyl-Sar]^3 cyclosporin A]
2.3 nM |  | >100 µM |  | CC[C@H]1NC(=O)[C@@H]([C@H](O)[C@H](C)CCCC(=O)NCC2COCCO2)N(C)C(=O)[C@@H](C(C)C)N(C)C(=O)[C@@H](CC(C)C)N(C)C(=O)[C@@H](CC(C)C)N(C)C(=O)[C@H](C)NC(=O)[C@@H](C)NC(=O)[C@@H](CC(C)C)N(C)C(=O)[C@@H](C(C)C)NC(=O)[C@H](CC(C)C)N(C)C(=O)[C@@H](C)N(C)C1=O (some centres unmarked) [Compound ZX]
5.7 nM |  |  | 75 to 100 µM | CC[C@H]1NC(=O)[C@@H]([C@H](O)[C@H](C)CCCC(=O)NCCOC)N(C)C(=O)[C@@H](C(C)C)N(C)C(=O)[C@@H](CC(C)C)N(C)C(=O)[C@@H](CC(C)C)N(C)C(=O)[C@H](C)NC(=O)[C@@H](C)NC(=O)[C@@H](CC(C)C)N(C)C(=O)[C@@H](C(C)C)NC(=O)[C@H](CC(C)C)N(C)C(=O)[C@@H](C)N(C)C1=O [Compound ZY, [(5R,6R,7S)-6-hydroxy-5-methyl-7-(methylamino)-1-(2-methoxyethylamino)-1-oxo-octanoic acid]1[(R)-methyl-Sar]3 cyclosporin A]
